{"source": "PubChem BioAssay AID1259407", "about": "(Chemical Carcinogenesis Research Information System (CCRIS), 2018)", "system": "CCRIS mutagenicity, Ames/micronucleus/aberration tests", "assay": "CCRIS mutagenicity studies", "note": "“Also recorded” adds a separate entry of the source. Active and inactive are the calls of the source. The rule behind the calls is not given here.", "data": [{"molecule": "C[C@]12CC[C@@H]3c4ccc(O)cc4CC[C@H]3[C@@H]1CC[C@@H]2O", "values": [{"measurement": "mutagenic call", "setting": "End Point: IN VITRO CHROMOSOMAL ABERRATIONS, Test System: CHINESE HAMSTER CELL DON (22;XY), Metabolic Activation: NONE", "result": "active; positive (ploidy changes)"}, {"measurement": "mutagenic call", "setting": "End Point: IN VITRO CHROMOSOMAL ABERRATIONS, Test System: CHO CELLS, Metabolic Activation: NONE", "result": "active; positive (structural changes)"}, {"measurement": "mutagenic call", "setting": "End Point: IN VITRO CHROMOSOMAL ABERRATIONS, Test System: HUMAN LYMPHOCYTES, Metabolic Activation: NONE, Method: FISH", "result": "active; positive (ploidy changes in chromosomes 1, 9, 16); also recorded: active; positive (ploidy changes in chromosomes 7 and 9)"}, {"measurement": "mutagenic call", "setting": "End Point: IN VITRO CHROMOSOMAL ABERRATIONS, Test System: HUMAN PERIPHERAL LYMPHOCYTES, Metabolic Activation: RAT, LIVER, S-9, AROCLOR 1254", "result": "inactive; negative"}, {"measurement": "mutagenic call", "setting": "End Point: IN VITRO CHROMOSOMAL ABERRATIONS, Test System: HUMAN PERIPHERAL LYMPHOCYTES, Metabolic Activation: RAT, LIVER, S-9, PHENOBARBITONE", "result": "active; positive"}, {"measurement": "mutagenic call", "setting": "End Point: IN VITRO CHROMOSOMAL ABERRATIONS, Test System: SYRIAN HAMSTER EMBRYO (SHE) CELLS, Metabolic Activation: NONE", "result": "active; positive (ploidy changes)"}, {"measurement": "mutagenic call", "setting": "End Point: IN VITRO MICRONUCLEUS, Test System: HUMAN PERIPHERAL BLOOD LYMPHOCYTES, Metabolic Activation: NONE", "result": "active; positive"}, {"measurement": "mutagenic call", "setting": "End Point: IN VITRO MICRONUCLEUS, Test System: HUMAN PERIPHERAL LYMPHOCYTES, Metabolic Activation: NONE", "result": "active; positive"}, {"measurement": "mutagenic call", "setting": "End Point: IN VIVO MICRONUCLEUS, Test System: BONE MARROW POLYCHROMATIC ERYTHROCYTES, Species: MOUSE, Strain/Sex: B6C3F1/MALE, FEMALE, Route: IP INJECTION", "result": "inactive; negative"}, {"measurement": "mutagenic call", "setting": "End Point: IN VIVO MICRONUCLEUS, Test System: BONE MARROW POLYCHROMATIC ERYTHROCYTES, Species: MOUSE, Strain/Sex: B6C3F1/MALE, Route: IP INJECTION", "result": "inactive; negative"}, {"measurement": "mutagenic call", "setting": "End Point: IN VIVO MICRONUCLEUS, Test System: BONE MARROW POLYCHROMATIC ERYTHROCYTES, Species: MOUSE, Strain/Sex: CBA/MALE, Route: IP", "result": "inactive; negative"}, {"measurement": "mutagenic call", "setting": "End Point: IN VIVO MICRONUCLEUS, Test System: BONE MARROW POLYCHROMATIC ERYTHROCYTES, Species: RAT, Strain/Sex: F344/MALE, Route: IP INJECTION", "result": "inactive; negative"}, {"measurement": "mutagenic call", "setting": "Test System: AMES SALMONELLA TYPHIMURIUM, Strain/Indicator: TA98, Metabolic Activation: MOUSE, LIVER, S-9, Method: STANDARD PLATE", "result": "inactive; negative"}, {"measurement": "mutagenic call", "setting": "Test System: AMES SALMONELLA TYPHIMURIUM, Strain/Indicator: TA98, Metabolic Activation: NONE, Method: STANDARD PLATE", "result": "inactive; negative"}, {"measurement": "mutagenic call", "setting": "Test System: AMES SALMONELLA TYPHIMURIUM, Strain/Indicator: TA98, Metabolic Activation: RAT, LIVER, S-9, AROCLOR 1254, Method: STANDARD PLATE", "result": "inactive; negative"}, {"measurement": "mutagenic call", "setting": "Test System: AMES SALMONELLA TYPHIMURIUM, Strain/Indicator: TA100, Metabolic Activation: MOUSE, LIVER, S-9, Method: STANDARD PLATE", "result": "inactive; negative"}, {"measurement": "mutagenic call", "setting": "Test System: AMES SALMONELLA TYPHIMURIUM, Strain/Indicator: TA100, Metabolic Activation: NONE, Method: STANDARD PLATE", "result": "inactive; negative"}, {"measurement": "mutagenic call", "setting": "Test System: AMES SALMONELLA TYPHIMURIUM, Strain/Indicator: TA100, Metabolic Activation: RAT, LIVER, S-9, AROCLOR 1254, Method: STANDARD PLATE", "result": "inactive; negative"}, {"measurement": "mutagenic call", "setting": "Test System: AMES SALMONELLA TYPHIMURIUM, Strain/Indicator: TA1535, Metabolic Activation: MOUSE, LIVER, S-9, Method: STANDARD PLATE", "result": "inactive; negative"}, {"measurement": "mutagenic call", "setting": "Test System: AMES SALMONELLA TYPHIMURIUM, Strain/Indicator: TA1535, Metabolic Activation: NONE, Method: STANDARD PLATE", "result": "inactive; negative"}, {"measurement": "mutagenic call", "setting": "Test System: AMES SALMONELLA TYPHIMURIUM, Strain/Indicator: TA1535, Metabolic Activation: RAT, LIVER, S-9, AROCLOR 1254, Method: STANDARD PLATE", "result": "inactive; negative"}, {"measurement": "mutagenic call", "setting": "Test System: AMES SALMONELLA TYPHIMURIUM, Strain/Indicator: TA1537, Metabolic Activation: MOUSE, LIVER, S-9, Method: STANDARD PLATE", "result": "inactive; negative"}, {"measurement": "mutagenic call", "setting": "Test System: AMES SALMONELLA TYPHIMURIUM, Strain/Indicator: TA1537, Metabolic Activation: NONE, Method: STANDARD PLATE", "result": "inactive; negative"}, {"measurement": "mutagenic call", "setting": "Test System: AMES SALMONELLA TYPHIMURIUM, Strain/Indicator: TA1537, Metabolic Activation: RAT, LIVER, S-9, AROCLOR 1254, Method: STANDARD PLATE", "result": "inactive; negative"}, {"measurement": "mutagenic call", "setting": "Test System: AMES SALMONELLA TYPHIMURIUM, Strain/Indicator: TA1538, Metabolic Activation: MOUSE, LIVER, S-9, Method: STANDARD PLATE", "result": "inactive; negative"}, {"measurement": "mutagenic call", "setting": "Test System: AMES SALMONELLA TYPHIMURIUM, Strain/Indicator: TA1538, Metabolic Activation: NONE, Method: STANDARD PLATE", "result": "inactive; negative"}, {"measurement": "mutagenic call", "setting": "Test System: AMES SALMONELLA TYPHIMURIUM, Strain/Indicator: TA1538, Metabolic Activation: RAT, LIVER, S-9, AROCLOR 1254, Method: STANDARD PLATE", "result": "inactive; negative"}, {"measurement": "mutagenic call", "setting": "Test System: CHINESE HAMSTER V-79, Strain/Indicator: V-79 (HPRT)/6-THIOGUANINE, Metabolic Activation: NONE", "result": "inactive; negative"}, {"measurement": "mutagenic call", "setting": "Test System: CHINESE HAMSTER V-79, Strain/Indicator: V-79 (HPRT)/6-THIOGUANINE, Metabolic Activation: NONE, Method: SUSPENSION/PLATE", "result": "active; positive"}, {"measurement": "mutagenic call", "setting": "Test System: UDS RAT HEPATOCYTES, Strain/Indicator: THY INCORP (18-20 HR), Metabolic Activation: NONE, Method: LIQUID SCINTILLATION COUNTING", "result": "inactive; negative"}]}, {"molecule": "COc1ccc(N/C=C/C2=[N+](C)c3ccccc3C2(C)C)c(OC)c1", "values": [{"measurement": "mutagenic call", "setting": "Test System: Ames Salmonella typhimurium, Strain/Indicator: TA98, Metabolic Activation: None, Method: Preincubation", "result": "inactive; negative"}, {"measurement": "mutagenic call", "setting": "Test System: Ames Salmonella typhimurium, Strain/Indicator: TA98, Metabolic Activation: Rat, Liver, S-9, Aroclor 1254, Method: Preincubation", "result": "inactive; negative"}, {"measurement": "mutagenic call", "setting": "Test System: Ames Salmonella typhimurium, Strain/Indicator: TA100, Metabolic Activation: None, Method: Preincubation", "result": "inactive; negative"}, {"measurement": "mutagenic call", "setting": "Test System: Ames Salmonella typhimurium, Strain/Indicator: TA100, Metabolic Activation: Rat, Liver, S-9, Aroclor 1254, Method: Preincubation", "result": "inactive; negative"}, {"measurement": "mutagenic call", "setting": "Test System: Ames Salmonella typhimurium, Strain/Indicator: TA102, Metabolic Activation: None, Method: Preincubation", "result": "inactive; negative"}, {"measurement": "mutagenic call", "setting": "Test System: Ames Salmonella typhimurium, Strain/Indicator: TA102, Metabolic Activation: Rat, Liver, S-9, Aroclor 1254, Method: Preincubation", "result": "inactive; negative"}, {"measurement": "mutagenic call", "setting": "Test System: Ames Salmonella typhimurium, Strain/Indicator: TA1535, Metabolic Activation: None, Method: Preincubation", "result": "inactive; negative"}, {"measurement": "mutagenic call", "setting": "Test System: Ames Salmonella typhimurium, Strain/Indicator: TA1535, Metabolic Activation: Rat, Liver, S-9, Aroclor 1254, Method: Preincubation", "result": "inactive; negative"}]}, {"molecule": "C/C=C1\\CC(C)C(C)(OC(C)=O)C(=O)OCC2=C3C(CC[N+]3(C)C=C2)OC1=O", "note": "(stereo not given)", "values": [{"measurement": "mutagenic call", "setting": "Test System: AMES SALMONELLA TYPHIMURIUM, Strain/Indicator: TA100, Metabolic Activation: HAMSTER, LIVER, S-9, PCB, Method: PREINCUBATION", "result": "active; positive"}, {"measurement": "mutagenic call", "setting": "Test System: AMES SALMONELLA TYPHIMURIUM, Strain/Indicator: TA100, Metabolic Activation: RAT, LIVER, S-9, PCB, Method: PREINCUBATION", "result": "active; positive"}]}]}
